# Starred links: 1 amine or outer side, 2 acyl side, 3 side chain; linkers in the order of their positions; H or OH if unused. Positions of bridges follow the written chain, without caps; N, C: chain ends. Non-standard residues stand in square brackets, D forms with d. Residues, ends and D or L forms follow the SMILES beside them. Groups on a side chain read outwards from the residue. *: point of attachment. Naphthalene(2,6-diCH2) = c1cc2cc(C[*:2])ccc2cc1C[*:1]; Pro(trans-4-cHex) = O=C(O)[C@@H]1C[C@@H](C2CCCCC2)CN1; X52 = O=C([C@H](Cc1cc2cc(F)ccc2[nH]1)N[*:1])[*:2]; NMeTrp(1-Me) = CN[C@@H](Cc1cn(C)c2ccccc12)C(=O)O; Pro(4R-Bn) = O=C(O)[C@@H]1C[C@@H](Cc2ccccc2)CN1; Trp(5-F) = N[C@@H](Cc1c[nH]c2ccc(F)cc12)C(=O)O; NMePhe(4-F) = CN[C@@H](Cc1ccc(F)cc1)C(=O)O; mXylylene(5-F) = Fc1cc(C[*:1])cc(C[*:2])c1; NMeW = CN[C@@H](Cc1c[nH]c2ccccc12)C(=O)O; αMeW = C[C@](N)(Cc1c[nH]c2ccccc12)C(=O)O; X4 = O=C(CCSCc1cccc(CSCCN[*:1])c1)[*:2]; Phe(4-Me) = Cc1ccc(C[C@H](N)C(=O)O)cc1; γGlu = O=C(O)[C@H](CCC(=O)[*:2])N[*:1]; mXylylene = c1cc(C[*:1])cc(C[*:2])c1; NMeY = CN[C@@H](Cc1ccc(O)cc1)C(=O)O; Palmitoyl = CCCCCCCCCCCCCCCC(=O)*; NMeD = CN[C@@H](CC(=O)O)C(=O)O; NMeL = CN[C@@H](CC(C)C)C(=O)O; αMeP = C[C@@]1(C(=O)O)CCCN1; NMeS = CN[C@@H](CO)C(=O)O; Aze = O=C(O)[C@@H]1CCN1; Dab = NCC[C@H](N)C(=O)O; Nva = CCC[C@H](N)C(=O)O; Aib = CC(C)(N)C(=O)O; βAla = NCCC(=O)O; Mpa = O=C(O)CCS; Sar = CNCC(=O)O
# Target: human PCSK9 / human LDLR EGFa domain interaction (Homo sapiens (Human), UniProt Q8NBP7)
# Sequence (Q8NBP7 153-692): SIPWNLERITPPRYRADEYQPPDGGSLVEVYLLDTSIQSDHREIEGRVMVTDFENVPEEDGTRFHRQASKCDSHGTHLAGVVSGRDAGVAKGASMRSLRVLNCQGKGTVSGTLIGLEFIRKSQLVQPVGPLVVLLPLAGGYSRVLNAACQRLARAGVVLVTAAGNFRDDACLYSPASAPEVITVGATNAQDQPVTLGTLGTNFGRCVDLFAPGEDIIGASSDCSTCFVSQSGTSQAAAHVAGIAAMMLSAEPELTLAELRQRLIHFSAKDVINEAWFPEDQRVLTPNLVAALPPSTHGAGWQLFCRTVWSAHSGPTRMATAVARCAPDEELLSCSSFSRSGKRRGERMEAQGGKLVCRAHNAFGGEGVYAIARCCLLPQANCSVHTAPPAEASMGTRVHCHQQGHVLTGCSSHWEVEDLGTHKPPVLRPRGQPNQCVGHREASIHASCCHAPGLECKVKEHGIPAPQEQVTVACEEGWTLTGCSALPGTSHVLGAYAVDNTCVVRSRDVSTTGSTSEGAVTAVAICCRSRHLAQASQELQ
# Sequence (Q8NBP7 31-152 partner): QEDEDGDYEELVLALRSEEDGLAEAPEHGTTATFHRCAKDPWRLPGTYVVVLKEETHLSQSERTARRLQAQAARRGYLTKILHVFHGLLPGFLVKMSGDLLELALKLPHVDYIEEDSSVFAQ
# Test: TR-FRET assay of inhibition of the PCSK9-LDLR protein-protein interaction
# Assay type: binding
# Settings: TR-FRET, 20 nM human PCSK9, 20 nM human LDLR EGFa domain, 2 hours room temperature; read-out: IC50
# Experimental: A time-resolved fluorescence resonance energy (TR-FRET) assay was used to measure inhibition of the PCSK9-LDLR protein-protein interaction. Briefly, 20 nM avitag-biotinylated human PCSK9 was incubated with 20 nM his-tagged human LDLR EGFa domain in the presence of 5 nM LANCE Ulight Streptavidin (Perkin Elmer) and 5 nM europium-Anti-6×His (Perkin Elmer) for 2 hours covered at room temperature in buffer containing 50 mM HEPES, 150 mM NaCl, 5 mM CaCl2), 0.01% BSA and 0.01% Surfactant P20. Compounds were tested in dose-response and concentrations giving half-maximal inhibition calculated using a 4-parameter fit equation.
row,Structure (SMILES),IC50 [µM]
1,"NCCCC[C@@H]1NC(=O)CCSCc2ccc3cc(ccc3c2)CSC[C@@H](C(N)=O)NC(=O)[C@@H]2CCCN2C(=O)[C@H](Cc2ccc(O)cc2)NC(=O)[C@H](Cc2c[nH]cn2)NC(=O)[C@H](CC(=O)O)NC(=O)[C@H](Cc2c[nH]c3ccc(F)cc23)NC(=O)[C@H](Cc2c[nH]c3ccc(F)cc23)NC(=O)CNC1=O [Compound 203] ([Mpa]KG[Trp(5-F)][Trp(5-F)]DHYPC-NH2; linker 1-10 via Naphthalene(2,6-diCH2))",1 to 12.1
2,CC1(C)NC(=O)[C@H](Cc2c[nH]c3ccc(F)cc23)NC(=O)CNC(=O)[C@H](CCCCN)NC(=O)CCSCc2cccc(c2)CSC[C@@H](C(N)=O)NC(=O)[C@@H]2CCCN2C(=O)[C@H](Cc2ccc(O)cc2)NC(=O)[C@H](Cc2cnc[nH]2)NC(=O)[C@H](CC(=O)O)NC1=O [Compound 317] ([Mpa]KG[Trp(5-F)][Aib]DHYPC-NH2; linker 1-10 via mXylylene),21 to 50
3,Cc1ccc(C[C@@H]2NC(=O)[C@H](Cc3c[nH]cn3)NC(=O)[C@H](CC(=O)O)NC(=O)[C@H](Cc3c[nH]c4ccc(F)cc34)NC(=O)[C@H](Cc3c[nH]c4ccc(F)cc34)NC(=O)[C@@H](C)NC(=O)[C@H](CCCCN)NC(=O)CCSCc3cccc(c3)CSCCNC(=O)[C@]3(C)CCCN3C2=O)cc1 [Compound 299] (cyclo(DH[Phe(4-Me)][αMeP][X4]K[dA][Trp(5-F)][Trp(5-F)])),0.1 to 1
4,CCCCCCCCCCCCCCCC(=O)N[C@@H](CCC(=O)N[C@@H](CCC(=O)NCC[C@H](NC(=O)[C@@H]1CSCc2cccc(c2)CSCCC(=O)N[C@@H](CCCCN)C(=O)NCC(=O)N[C@@H](Cc2c[nH]c3ccc(F)cc23)C(=O)N[C@@H](Cc2c[nH]c3ccc(F)cc23)C(=O)N[C@@H](CC(=O)O)C(=O)N[C@@H](Cc2c[nH]cn2)C(=O)N[C@@H](Cc2ccc(O)cc2)C(=O)N2CCC[C@@]2(C)C(=O)N1)C(N)=O)C(=O)O)C(=O)O [Compound 284] ([Mpa]KG[Trp(5-F)][Trp(5-F)]DHY[αMeP]C[Dab]([γGlu-γGlu-Palmitoyl])-NH2; linker 1-10 via mXylylene),21 to 50
5,C[C@@H]1NC(=O)CCSCc2cccc(c2)CSC[C@@H](C(N)=O)NC(=O)[C@@H]2CCCN2C(=O)[C@H](Cc2ccc(O)cc2)N(C)C(=O)[C@H](Cc2c[nH]cn2)NC(=O)[C@H](CC(=O)O)N(C)C(=O)[C@H](Cc2cn(C)c3ccccc23)N(C)C(=O)[C@H](Cc2c[nH]c3ccccc23)N(C)C(=O)CN(C)C1=O [Compound 259] ([Mpa]A[Sar][NMeW][NMeTrp(1-Me)][NMeD]H[NMeY]PC-NH2; linker 1-10 via mXylylene),1 to 12.1
6,CN1CC(=O)N[C@@H](Cc2c[nH]c3ccccc23)C(=O)N[C@@H](Cc2c[nH]c3ccccc23)C(=O)N(C)[C@@H](CC(=O)O)C(=O)N[C@@H](Cc2cnc[nH]2)C(=O)N(C)[C@@H](Cc2ccc(O)cc2)C(=O)N2CCC[C@H]2C(=O)N[C@H](C(N)=O)CSCc2cccc(c2)CSCCC(=O)N[C@@H](CCCCN)C1=O [Compound 221] ([Mpa]K[Sar]WW[NMeD]H[NMeY]PC-NH2; linker 1-10 via mXylylene),21 to 50
7,NCCCC[C@@H]1NC(=O)CCSCc2cccc(c2)CSC[C@@H](C(N)=O)NC(=O)[C@@H]2C[C@@H](C3CCCCC3)CN2C(=O)[C@H](Cc2ccc(O)cc2)NC(=O)[C@H](Cc2c[nH]cn2)NC(=O)[C@H](CC(=O)O)NC(=O)[C@H](Cc2c[nH]c3ccc(F)cc23)NC(=O)[C@H](Cc2c[nH]c3ccc(F)cc23)NC(=O)CNC1=O [Compound 304] ([Mpa]KG[Trp(5-F)][Trp(5-F)]DHY[Pro(trans-4-cHex)]C-NH2; linker 1-10 via mXylylene),21 to 50
8,CCC[C@H](NC(C)=O)C(=O)N[C@H](Cc1c[nH]cn1)C(=O)N(C)[C@@H](Cc1ccc(F)cc1)C(=O)N[C@H]1CSCc2cccc(c2)CSC[C@@H](C(N)=O)NC(=O)[C@@H]2CCCN2C(=O)[C@H](Cc2ccc(O)cc2)NC(=O)[C@H](Cc2c[nH]cn2)NC(=O)[C@H](CC(=O)O)NC(=O)[C@H](Cc2c[nH]c3ccc(F)cc23)NC(=O)[C@H](Cc2c[nH]c3ccc(F)cc23)NC(=O)CNC(=O)[C@H](CCCCN)NC1=O [Compound 144] (Ac-[Nva][dH][NMePhe(4-F)]CKG[Trp(5-F)][Trp(5-F)]DHYPC-NH2; linker 4-13 via mXylylene),1 to 12.1
9,CN1CC(=O)N[C@@H](Cc2c[nH]c3ccccc23)C(=O)N[C@@H](Cc2c[nH]c3ccccc23)C(=O)N(C)[C@@H](CC(=O)O)C(=O)N[C@@H](Cc2c[nH]cn2)C(=O)N[C@@H](Cc2ccc(O)cc2)C(=O)N2CCC[C@H]2C(=O)N[C@H](C(N)=O)CSCc2cccc(c2)CSCCC(=O)N[C@@H](CCCCN)C1=O [Compound 222] ([Mpa]K[Sar]WW[NMeD]HYPC-NH2; linker 1-10 via mXylylene),21 to 50
10,COc1ccc(C[C@@H]2NC(=O)[C@@H](CC(C)C)NC(=O)[C@H](CC(C)C)NC(=O)CCSCc3cccc(c3)CSC[C@@H](C(N)=O)NC(=O)[C@]3(C)CCCN3C(=O)[C@H](Cc3ccc(OC)cc3)NC(=O)[C@H]([C@@H](C)OC)NC(=O)[C@H](CC(C)C)N(C)C(=O)[C@H](Cc3ccc(OC)cc3)NC2=O)cc1 [Compound 037] ([Mpa]L[dL]Y(Me)Y(Me)[NMeL]T(Me)Y(Me)[αMeP]C-NH2; linker 1-10 via mXylylene),0.1 to 1
11,CCC[C@H](NC(C)=O)C(=O)N(C)[C@@H](CO)C(=O)N[C@@H](CCCCN)C(=O)N[C@H]1CSCc2cccc(c2)CSC[C@@H](C(N)=O)NC(=O)[C@@H]2CCCN2C(=O)[C@H](Cc2ccc(O)cc2)NC(=O)[C@H](Cc2c[nH]cn2)NC(=O)[C@H](CC(=O)O)NC(=O)[C@H](Cc2c[nH]c3ccc(F)cc23)NC(=O)[C@H](Cc2c[nH]c3ccc(F)cc23)NC(=O)CNC(=O)[C@H](CCCCN)NC1=O [Compound 145] (Ac-[Nva][NMeS]KCKG[Trp(5-F)][Trp(5-F)]DHYPC-NH2; linker 4-13 via mXylylene),1 to 12.1
12,CC(=O)N[C@H]1CSCc2cccc(c2)CSC[C@@H](C(N)=O)NC(=O)[C@@H]2CCCN2C(=O)[C@H](Cc2ccc(O)cc2)NC(=O)[C@H](Cc2cnc[nH]2)NC(=O)[C@H](CC(=O)O)NC(=O)[C@H](Cc2c[nH]c3ccccc23)NC(=O)[C@H](Cc2c[nH]c3ccc(F)cc23)NC(=O)CNC(=O)[C@H](CCCCN)NC1=O [Compound 177] (Ac-CKG[Trp(5-F)]WDHYPC-NH2; linker 1-10 via mXylylene),21 to 50
13,C[C@@]12CCCN1C(=O)[C@H](Cc1ccc(O)cc1)NC(=O)[C@H](Cc1cnc[nH]1)NC(=O)[C@H](CC(=O)O)NC(=O)[C@H](Cc1c[nH]c3ccc(F)cc13)NC(=O)[C@H](Cc1c[nH]c3ccc(F)cc13)NC(=O)CNC(=O)[C@H](CCCCN)NC(=O)CCSCc1cc(F)cc(c1)CSC[C@@H](C(N)=O)NC2=O [Compound 287] ([Mpa]KG[Trp(5-F)][Trp(5-F)]DHY[αMeP]C-NH2; linker 1-10 via mXylylene(5-F)),21 to 50
14,NCCCC[C@@H]1NC(=O)CCSCc2cccc(c2)CSC[C@@H](C(N)=O)NC(=O)[C@@H]2C[C@@H](Cc3ccccc3)CN2C(=O)[C@H](Cc2ccc(O)cc2)NC(=O)[C@H](Cc2c[nH]cn2)NC(=O)[C@H](CC(=O)O)NC(=O)[C@H](Cc2c[nH]c3ccc(F)cc23)NC(=O)[C@H](Cc2c[nH]c3ccc(F)cc23)NC(=O)CNC1=O [Compound 294] ([Mpa]KG[Trp(5-F)][Trp(5-F)]DHY[Pro(4R-Bn)]C-NH2; linker 1-10 via mXylylene),0.1 to 1
15,C[C@@]1(Cc2c[nH]c3ccccc23)NC(=O)CNC(=O)[C@H](CCCCN)NC(=O)CCSCc2cccc(c2)CSC[C@@H](C(N)=O)NC(=O)[C@@H]2CCCN2C(=O)[C@H](Cc2ccc(O)cc2)NC(=O)[C@H](Cc2c[nH]cn2)NC(=O)[C@H](CC(=O)O)NC(=O)[C@H](Cc2c[nH]c3ccc(F)cc23)NC1=O [Compound 212] ([Mpa]KG[αMeW][Trp(5-F)]DHYPC-NH2; linker 1-10 via mXylylene),0.1 to 1
16,C[C@@H]1NC(=O)[C@H](CCCCN)NC(=O)CCSCc2cccc(c2)CSC[C@@H](C(N)=O)NC(=O)[C@@H]2CCCN2C(=O)[C@H](Cc2ccc(O)cc2)NC(=O)[C@H](Cc2cnc[nH]2)NC(=O)[C@H](CC(=O)O)NC(=O)[C@H](Cc2c[nH]c3ccc(F)cc23)NC(=O)[C@H](Cc2c[nH]c3ccc(F)cc23)NC1=O [Compound 156] ([Mpa]KA[Trp(5-F)][Trp(5-F)]DHYPC-NH2; linker 1-10 via mXylylene),1 to 12.1
17,C[C@@H]1NC(=O)[C@@H]2CCN2C(=O)[C@H](Cc2c[nH]c3ccc(F)cc23)NC(=O)[C@H](Cc2c[nH]c3ccc(F)cc23)NC(=O)[C@@H](C)NC(=O)[C@H](CCCCN)NC(=O)CCSCc2cccc(c2)CSCCNC(=O)[C@]2(C)CCCN2C(=O)[C@H](Cc2ccc(O)cc2)NC1=O [Compound 002] (cyclo(AY[αMeP][X4]K[dA][Trp(5-F)][Trp(5-F)][Aze])),21 to 50
18,NCCCC[C@@H]1NC(=O)CCCCn2cc(nn2)CC[C@@H](C(N)=O)NC(=O)[C@@H]2CCCN2C(=O)[C@H](Cc2ccc(O)cc2)NC(=O)[C@H](Cc2c[nH]cn2)NC(=O)[C@H](CC(=O)O)NC(=O)[C@H](Cc2c[nH]c3ccc(F)cc23)NC(=O)[C@H](Cc2c[nH]c3ccc(F)cc23)NC(=O)CNC1=O [Compound 185],0.0001 to 0.1
19,NCCCC[C@@H]1NC(=O)CCCn2cc(nn2)CC[C@@H](C(N)=O)NC(=O)[C@@H]2CCCN2C(=O)[C@H](Cc2ccc(O)cc2)NC(=O)[C@H](Cc2c[nH]cn2)NC(=O)[C@H](CC(=O)O)NC(=O)[C@H](Cc2c[nH]c3ccc(F)cc23)NC(=O)[C@H](Cc2c[nH]c3ccc(F)cc23)NC(=O)CNC1=O [Compound 186],0.1 to 1
20,COc1ccc(C[C@@H]2NC(=O)CCNC(=O)[C@@H]3CCCN3C(=O)[C@H](Cc3c[nH]c4ccc(F)cc34)NC(=O)[C@H](Cc3cc4cc(F)ccc4[nH]3)NC(=O)[C@@H](C)NC(=O)[C@H](CCCCN)NC(=O)CCSCc3cccc(c3)CSCCNC(=O)[C@]3(C)CCCN3C2=O)cc1 [Compound 003] (cyclo(K[dA][X52][Trp(5-F)]P[βAla]Y(Me)[αMeP][X4])),1 to 12.1

# From patent US11530244B2, “Cyclic polypeptides for PCSK9 inhibition” (priority 2018, dated 2022)
